Experimental data reported in ChEMBL document CHEMBL1201862, “PubChem BioAssay data set” (2004).
Active and inactive are the calls of the source.

Legend:
[1] = target: Potassium voltage-gated channel subfamily KQT member 2 (Rattus norvegicus, UniProt O88943); experiment: KCNQ2 potassium channel inhibitors, dose response, cell-based, automated electrophysiology, set II, rat KCNQ2 (AID 588637); assay type: functional
Escherichia coli [2] = experiment: microbe, parasite or virus in culture
[3] = Luminescence Cell-Based Dose Retest to Confirm Inhibitors of Cancer Stem Cells. [Related pubchem assays (depositor defined):AID2717, AID2721]; assay type: functional; details: Homo sapiens
[4] = target: Photoreceptor-specific nuclear receptor (Homo sapiens, UniProt Q9Y5X4); assay type: functional, cell-based;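 further: CHO-S cells with Gal4-NCOR and VP16-NR2E3 two-hybrid luciferase reporter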
Escherichia coli [5] = experiment: microbe, parasite or virus in culture; remark: listed apart in the source
[6] = A cytotoxicity screen of small molecule inhibitors of the PhoP region in Salmonella typhi identified in the primary screen. [Related pubchem assays: 1850, 1864, 1985 ]; assay type: functional
[7] = target: T1, High affinity choline transporter 1 (Homo sapiens, UniProt Q9GZV3); experiment: CHT inhibitors, dose response, cell-based, 5-point CRC, membrane potential dye (AID 504840); assay type: functional
T1 sequence (Q9GZV3 whole entry): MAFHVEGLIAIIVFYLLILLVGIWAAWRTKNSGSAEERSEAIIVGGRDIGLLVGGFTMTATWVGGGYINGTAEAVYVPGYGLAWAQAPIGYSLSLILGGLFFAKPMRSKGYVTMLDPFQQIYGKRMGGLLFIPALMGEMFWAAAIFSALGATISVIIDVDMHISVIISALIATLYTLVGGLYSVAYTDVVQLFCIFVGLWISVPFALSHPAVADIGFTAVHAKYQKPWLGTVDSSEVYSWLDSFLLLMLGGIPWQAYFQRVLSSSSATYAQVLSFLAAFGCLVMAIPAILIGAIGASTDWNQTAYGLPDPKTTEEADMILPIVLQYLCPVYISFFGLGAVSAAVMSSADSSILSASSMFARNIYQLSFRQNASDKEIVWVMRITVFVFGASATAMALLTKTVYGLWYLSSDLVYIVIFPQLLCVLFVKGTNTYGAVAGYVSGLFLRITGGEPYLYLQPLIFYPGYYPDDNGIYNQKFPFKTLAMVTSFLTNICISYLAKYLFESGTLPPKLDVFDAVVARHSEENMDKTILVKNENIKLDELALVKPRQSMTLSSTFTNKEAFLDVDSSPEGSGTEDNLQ

[8] = target: T1, High affinity choline transporter 1; experiment: CHT inhibitors, dose response, cell-based, 10-point CRC, membrane potential dye (AID 588401); assay type: functional;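 further: membrane potential dye fluorescence of choline-evoked depolarization via CHT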
[9] = target: Ras and Rab interactor 1/Tyrosine-protein kinase ABL1 (Homo sapiens, UniProt P00519+Q13671); assay type: functional;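 further: biochemical TR-FRET dose-response test measuring inhibition of binding between Rin1 and Abl proteins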
Sequence of Ras and Rab interactor 1/Tyrosine-protein kinase ABL1 (P00519 whole entry): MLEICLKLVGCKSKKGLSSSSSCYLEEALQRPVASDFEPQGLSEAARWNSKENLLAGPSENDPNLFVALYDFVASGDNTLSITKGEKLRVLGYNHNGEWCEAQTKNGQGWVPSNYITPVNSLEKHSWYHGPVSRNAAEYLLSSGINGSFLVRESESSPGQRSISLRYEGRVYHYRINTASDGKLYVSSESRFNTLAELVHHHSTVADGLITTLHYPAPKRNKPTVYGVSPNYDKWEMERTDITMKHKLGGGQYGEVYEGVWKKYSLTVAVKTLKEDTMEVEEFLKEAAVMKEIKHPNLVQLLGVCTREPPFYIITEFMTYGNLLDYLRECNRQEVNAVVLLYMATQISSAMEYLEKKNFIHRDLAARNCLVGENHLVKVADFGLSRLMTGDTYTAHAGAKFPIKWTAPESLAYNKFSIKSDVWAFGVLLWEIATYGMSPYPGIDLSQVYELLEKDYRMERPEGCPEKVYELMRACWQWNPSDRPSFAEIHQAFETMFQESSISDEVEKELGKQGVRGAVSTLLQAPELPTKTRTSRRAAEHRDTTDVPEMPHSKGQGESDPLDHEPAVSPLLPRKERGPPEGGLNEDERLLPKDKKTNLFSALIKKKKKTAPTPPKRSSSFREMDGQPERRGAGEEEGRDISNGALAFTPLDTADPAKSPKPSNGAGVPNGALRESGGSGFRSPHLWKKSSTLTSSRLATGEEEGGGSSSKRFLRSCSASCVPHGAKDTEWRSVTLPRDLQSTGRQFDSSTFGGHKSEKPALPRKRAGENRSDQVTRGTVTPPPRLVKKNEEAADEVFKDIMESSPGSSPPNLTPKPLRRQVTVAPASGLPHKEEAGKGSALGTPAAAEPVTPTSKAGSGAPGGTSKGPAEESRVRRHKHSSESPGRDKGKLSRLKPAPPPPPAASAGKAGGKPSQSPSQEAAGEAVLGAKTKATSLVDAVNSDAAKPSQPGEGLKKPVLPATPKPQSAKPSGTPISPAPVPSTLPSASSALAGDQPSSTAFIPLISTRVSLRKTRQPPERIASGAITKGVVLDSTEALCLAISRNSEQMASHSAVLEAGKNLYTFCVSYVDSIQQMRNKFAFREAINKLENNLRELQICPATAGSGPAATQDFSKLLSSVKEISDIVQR
Sequence of Ras and Rab interactor 1/Tyrosine-protein kinase ABL1 (Q13671 whole entry): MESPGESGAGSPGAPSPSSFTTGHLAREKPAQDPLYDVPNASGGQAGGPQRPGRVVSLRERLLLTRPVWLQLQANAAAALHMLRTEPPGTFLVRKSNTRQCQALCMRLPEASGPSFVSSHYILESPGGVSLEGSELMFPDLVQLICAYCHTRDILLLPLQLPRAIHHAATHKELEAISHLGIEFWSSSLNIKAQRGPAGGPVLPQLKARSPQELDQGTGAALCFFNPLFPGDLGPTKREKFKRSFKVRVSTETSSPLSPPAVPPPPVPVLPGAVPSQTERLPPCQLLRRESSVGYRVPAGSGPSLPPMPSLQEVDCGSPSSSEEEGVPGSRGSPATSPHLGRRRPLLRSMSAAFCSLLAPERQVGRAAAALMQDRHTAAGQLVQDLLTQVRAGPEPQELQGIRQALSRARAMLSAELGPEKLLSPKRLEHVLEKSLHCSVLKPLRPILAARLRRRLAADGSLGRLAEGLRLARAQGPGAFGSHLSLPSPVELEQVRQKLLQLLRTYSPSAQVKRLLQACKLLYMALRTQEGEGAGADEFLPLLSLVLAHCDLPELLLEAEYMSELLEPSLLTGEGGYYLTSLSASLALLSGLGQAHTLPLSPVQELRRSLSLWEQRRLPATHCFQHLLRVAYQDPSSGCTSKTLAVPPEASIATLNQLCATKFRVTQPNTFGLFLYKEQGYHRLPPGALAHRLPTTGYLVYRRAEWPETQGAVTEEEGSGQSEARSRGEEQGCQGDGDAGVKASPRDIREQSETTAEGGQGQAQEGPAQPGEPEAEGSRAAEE

HEK293 [10] = experiment: NOD1 signaling inhibitors, primary screen, cell-based, luminescence, uHTS (AID 1578); assay type: functional; details: Homo sapiens
HEK293 [11] = experiment: cells; assay type: functional, cell-based; details: Homo sapiens
HEK293 [12] = experiment: cells; assay type: functional, cell-based; details: Homo sapiens; remark: listed apart in the source
HEK293 [13] = experiment: NOD2 signaling inhibitors in MDP-stimulated cells, cell-based, uHTS, luminescence (AID 2001); assay type: functional; details: Homo sapiens
[14] = growth suppression of PTEN-null colon cells, dose response, cell-based, HCT116 PTEN knockout (AID 1047); assay type: functional;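 further: HCT116 colon tumor cells with PTEN knocked out; cells exposed to compound for 60 hours before readout; potency for loss of cell viability measured by luminescence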
[15] = growth suppression of beta-catenin-knockout colon cells, dose response, cell-based, HCT116, human colon tumor (AID 1045); assay type: functional;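 further: HCT116 colon tumor cells with beta catenin knocked out; cells exposed to compound for 60 hours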
HEK293 [16] = experiment: cells; details: Homo sapiens
HEK293 [17] = experiment: cells; details: Homo sapiens; remark: listed apart in the source
[18] = NIH-3T3 fibroblast cytotoxicity, dose response, cytotoxicity control, cell-based, fluorescence, Alamar Blue, secondary assay (AID 2327); assay type: functional;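 further: NIH-3T3 mouse fibroblasts cultured with fluconazole at 8 µg/mL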
[19] = C. albicans growth with fluconazole, confirmation, fluorescence, retest (AID 2467); assay type: functional, cell-based
[20] = target: T2, Serine/threonine-protein phosphatase (Candida dubliniensis (strain CD36 / CBS 7987 / NCPF 3949 / NRRLY-17841) (Yeast), UniProt B9W6M3); experiment: calcineurin pathway inhibitors in yeast reporter, dose response, S. cerevisiae, CDRE-lacZ, luminescence, secondary (AID 2388); assay type: functional, cell-based;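 further: yeast reporter cells carrying a calcineurin-responsive lacZ construct stimulated with calcium chloride; luminescent beta-galactosidase reporter signal in whole cells rather than isolated phosphatase activity; potency for inhibition where a drop in reporter signal means calcineurin blockade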
T2 sequence (B9W6M3 whole entry): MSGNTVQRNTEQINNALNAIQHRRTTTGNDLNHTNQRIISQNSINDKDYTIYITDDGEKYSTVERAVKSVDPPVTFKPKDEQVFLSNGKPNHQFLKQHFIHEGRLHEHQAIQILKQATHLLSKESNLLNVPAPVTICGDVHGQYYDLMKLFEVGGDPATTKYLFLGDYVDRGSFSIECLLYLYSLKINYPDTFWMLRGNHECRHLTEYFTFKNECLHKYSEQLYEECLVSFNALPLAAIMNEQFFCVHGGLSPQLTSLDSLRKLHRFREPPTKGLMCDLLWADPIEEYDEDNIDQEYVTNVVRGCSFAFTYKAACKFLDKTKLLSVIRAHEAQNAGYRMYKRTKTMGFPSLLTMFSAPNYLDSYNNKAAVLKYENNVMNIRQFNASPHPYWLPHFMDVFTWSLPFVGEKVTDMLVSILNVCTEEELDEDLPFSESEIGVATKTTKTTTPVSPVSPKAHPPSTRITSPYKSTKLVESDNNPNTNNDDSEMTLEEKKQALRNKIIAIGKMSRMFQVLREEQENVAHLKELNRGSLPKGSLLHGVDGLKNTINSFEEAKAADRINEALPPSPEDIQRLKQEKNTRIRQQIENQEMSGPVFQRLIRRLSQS

[21] = target: ATP-dependent molecular chaperone HSP82 (Candida albicans (strain WO-1) (Yeast), UniProt C4YTQ8); experiment: loss of DOC-induced GRE-beta-galactosidase reporter signal, dose response, Hsp90 inhibitor project, S. cerevisiae, luminescence (AID 2400); assay type: functional, cell-based;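 further: beta-galactosidase luminescence from glucocorticoid response element reporter as proxy for Hsp90 function; inhibitor potency where signal loss means Hsp90 inhibition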
Sequence of ATP-dependent molecular chaperone HSP82 (C4YTQ8 whole entry, the tested form may be a part): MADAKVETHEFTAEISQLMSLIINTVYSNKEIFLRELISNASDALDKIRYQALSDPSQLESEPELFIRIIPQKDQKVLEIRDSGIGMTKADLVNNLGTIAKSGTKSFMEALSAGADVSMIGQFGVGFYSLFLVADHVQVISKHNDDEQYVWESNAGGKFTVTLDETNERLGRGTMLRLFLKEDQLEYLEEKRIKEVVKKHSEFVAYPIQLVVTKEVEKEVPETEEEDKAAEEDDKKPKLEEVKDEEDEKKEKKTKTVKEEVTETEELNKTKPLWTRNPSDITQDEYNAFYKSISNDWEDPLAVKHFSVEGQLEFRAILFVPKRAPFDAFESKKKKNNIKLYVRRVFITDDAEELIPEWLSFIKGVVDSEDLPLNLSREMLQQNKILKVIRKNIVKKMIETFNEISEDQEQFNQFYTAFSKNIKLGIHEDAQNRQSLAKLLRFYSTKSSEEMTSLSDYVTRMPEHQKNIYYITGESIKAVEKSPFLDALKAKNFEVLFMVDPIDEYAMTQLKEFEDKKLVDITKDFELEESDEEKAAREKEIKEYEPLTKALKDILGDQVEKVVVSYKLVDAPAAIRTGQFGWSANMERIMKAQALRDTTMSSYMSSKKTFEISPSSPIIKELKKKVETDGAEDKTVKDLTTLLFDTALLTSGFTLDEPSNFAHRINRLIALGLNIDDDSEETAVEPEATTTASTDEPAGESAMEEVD

[22] = ARNT/TACC3 interaction disruptors, potency, confirmation, biochemical, AlphaScreen, cherry-picked samples (AID 651703); assay type: functional, Homo sapiens;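 further: His-tagged ARNT PAS-B domain paired with GST-TACC3 E629A dimer coactivator fragment; potency of inhibitors that break up the complex and lower AlphaScreen signal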
[23] = target: T3, ATP-dependent translocase ABCB1 (Homo sapiens, UniProt P08183); experiment: ABCG2 efflux pump inhibitor potency, dose response, Ig-MXP3 cells, JC-1, flow cytometry, set 2 (AID 504566); assay type: functional; details: read-out: EC50_MICROM_;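 further: flow cytometry median green fluorescence of retained JC-1 dye; potency of efflux pump inhibition measured as rising substrate retention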
T3 sequence (P08183 whole entry): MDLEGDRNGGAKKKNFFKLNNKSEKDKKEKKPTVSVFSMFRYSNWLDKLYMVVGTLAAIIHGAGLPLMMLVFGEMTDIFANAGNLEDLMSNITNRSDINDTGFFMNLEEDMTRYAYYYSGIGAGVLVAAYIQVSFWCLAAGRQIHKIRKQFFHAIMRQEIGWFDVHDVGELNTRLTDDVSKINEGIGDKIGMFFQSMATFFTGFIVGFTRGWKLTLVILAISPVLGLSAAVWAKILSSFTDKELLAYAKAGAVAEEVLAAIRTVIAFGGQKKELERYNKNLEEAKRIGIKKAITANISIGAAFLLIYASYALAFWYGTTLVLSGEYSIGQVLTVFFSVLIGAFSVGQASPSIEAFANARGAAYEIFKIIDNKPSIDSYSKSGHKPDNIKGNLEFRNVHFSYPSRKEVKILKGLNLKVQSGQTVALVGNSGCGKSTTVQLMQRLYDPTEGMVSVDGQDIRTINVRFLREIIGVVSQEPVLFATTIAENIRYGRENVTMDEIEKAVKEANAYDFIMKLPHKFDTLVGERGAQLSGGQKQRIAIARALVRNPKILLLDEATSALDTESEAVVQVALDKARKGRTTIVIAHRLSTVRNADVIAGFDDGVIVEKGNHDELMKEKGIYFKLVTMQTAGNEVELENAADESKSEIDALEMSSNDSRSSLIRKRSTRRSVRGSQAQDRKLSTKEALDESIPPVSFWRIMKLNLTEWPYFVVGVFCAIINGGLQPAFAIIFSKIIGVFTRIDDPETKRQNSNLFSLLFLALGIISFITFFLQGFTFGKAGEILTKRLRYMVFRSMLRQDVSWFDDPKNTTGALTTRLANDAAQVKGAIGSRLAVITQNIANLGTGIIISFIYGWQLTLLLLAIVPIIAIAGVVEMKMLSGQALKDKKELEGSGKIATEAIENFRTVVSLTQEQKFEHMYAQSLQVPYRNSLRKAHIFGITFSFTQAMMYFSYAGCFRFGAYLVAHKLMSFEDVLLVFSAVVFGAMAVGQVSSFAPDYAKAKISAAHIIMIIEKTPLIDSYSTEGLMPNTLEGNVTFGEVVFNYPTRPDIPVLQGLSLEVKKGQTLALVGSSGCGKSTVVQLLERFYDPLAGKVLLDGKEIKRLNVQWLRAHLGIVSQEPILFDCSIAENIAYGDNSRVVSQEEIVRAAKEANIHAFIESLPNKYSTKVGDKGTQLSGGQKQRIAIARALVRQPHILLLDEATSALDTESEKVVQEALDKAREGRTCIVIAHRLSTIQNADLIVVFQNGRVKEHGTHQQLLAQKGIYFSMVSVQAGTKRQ

[24] = target: T3, ATP-dependent translocase ABCB1; experiment: ABCB1 efflux inhibitor potency, dose response, Jurkat-DNR cells, JC-1, flow cytometry, set 2 (AID 504569); assay type: functional; details: read-out: EC50_MICROM_;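 further: potency of pump inhibitors that raise cellular JC-1 green fluorescence up to the nicardipine level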
[25] = test system: Streptococcus sp. 'group A'; experiment: growth inhibition of control SK(-) GAS strain, dose response, counter-screen for streptokinase expression inhibitor project, luminescence, kanamycin, BacTiterGlo, confirmation (AID 1900); assay type: functional, organism-based
Streptokinase A = target: T4, Streptokinase A (Streptococcus pyogenes serotype M1, UniProt P10520); experiment: S. pyogenes streptokinase expression inhibitors, potency, dose response, plasminogen activation absorbance, OD405 (AID 1914); assay type: functional, Streptococcus pyogenes M1 GAS;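 further: secreted streptokinase activity via plasminogen activation per viability signal from cell pellet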
T4 sequence (P10520 whole entry): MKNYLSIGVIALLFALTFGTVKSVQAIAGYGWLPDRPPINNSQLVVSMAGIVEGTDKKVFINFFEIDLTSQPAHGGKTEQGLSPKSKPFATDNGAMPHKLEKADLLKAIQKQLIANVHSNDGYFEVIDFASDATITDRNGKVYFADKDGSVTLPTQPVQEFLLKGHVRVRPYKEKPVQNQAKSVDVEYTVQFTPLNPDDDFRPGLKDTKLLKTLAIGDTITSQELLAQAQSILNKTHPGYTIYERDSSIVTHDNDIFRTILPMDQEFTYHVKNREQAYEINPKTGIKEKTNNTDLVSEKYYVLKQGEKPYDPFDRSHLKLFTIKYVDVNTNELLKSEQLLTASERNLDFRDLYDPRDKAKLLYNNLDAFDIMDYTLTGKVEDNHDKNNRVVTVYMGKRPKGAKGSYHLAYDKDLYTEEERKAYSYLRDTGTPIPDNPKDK

Streptococcus = experiment: Group A Streptococcus viability loss, dose response, counter-screen for streptokinase expression inhibitor project, luminescence, BacTiterGlo (AID 1915); assay type: functional, organism-based;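 further: potency for reduction of bacterial viability or growth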
[26] = inhibitors of firefly luciferase expression or activity, dose response, H4 neuroglioma cells, luminescence (AID 1990); assay type: functional, cell-based
[27] = Luminescence Cell-Based Dose Response HTS to Identify Inhibitors of 5'UTR Stem-Loop Driven Prion Protein mRNA Translation in H4 Neuroglioblastoma Cells. [Related pubchem assays: 1827 (Project Summary), 1813 (Primary HTS)]; assay type: functional
[28] = inhibitors of SNCA 5'UTR-driven reporter translation, confirmation, H4 neuroglioma cells, luminescence (AID 1988); assay type: functional, cell-based
[29] = inhibitors of intracellular T. cruzi replication, confirmation, NIH3T3 host cells, beta-gal luminescence (AID 2044); assay type: functional, cell-based;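 further: intracellular parasites grown in NIH/3T3 mouse fibroblasts as host cells; luminescent beta-galactosidase reporter signal from transgenic T. cruzi replicating inside host cells; inhibitors lower the luminescence signal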
[30] = cytotoxicity toward NIH3T3 fibroblasts, dose response, counter-screen, cell-based, ATP luminescence, mouse fibroblasts (AID 2010); assay type: functional;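 further: cells exposed to compound for about 90 hours before reading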
INS1 = experiment: beta cell apoptosis inhibitors, cytokine rescue, dose response, luminescence, retest (AID 449756); assay type: functional, cell-based; details: Rattus norvegicus;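 further: cell death triggered by IL-1 beta plus TNF-alpha plus IFN-gamma mixture; protective hits raise ATP signal compared with cytokine alone wells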
Leucine aminopeptidase = target: T5, Leucine aminopeptidase (Plasmodium falciparum 3D7, UniProt Q8IL11); experiment: P. falciparum M17LAP inhibitors, primary screen, biochemical, fluorogenic H-Leu-NHMec substrate, 1536-well (AID 1619); assay type: functional
T5 sequence (Q8IL11 whole entry): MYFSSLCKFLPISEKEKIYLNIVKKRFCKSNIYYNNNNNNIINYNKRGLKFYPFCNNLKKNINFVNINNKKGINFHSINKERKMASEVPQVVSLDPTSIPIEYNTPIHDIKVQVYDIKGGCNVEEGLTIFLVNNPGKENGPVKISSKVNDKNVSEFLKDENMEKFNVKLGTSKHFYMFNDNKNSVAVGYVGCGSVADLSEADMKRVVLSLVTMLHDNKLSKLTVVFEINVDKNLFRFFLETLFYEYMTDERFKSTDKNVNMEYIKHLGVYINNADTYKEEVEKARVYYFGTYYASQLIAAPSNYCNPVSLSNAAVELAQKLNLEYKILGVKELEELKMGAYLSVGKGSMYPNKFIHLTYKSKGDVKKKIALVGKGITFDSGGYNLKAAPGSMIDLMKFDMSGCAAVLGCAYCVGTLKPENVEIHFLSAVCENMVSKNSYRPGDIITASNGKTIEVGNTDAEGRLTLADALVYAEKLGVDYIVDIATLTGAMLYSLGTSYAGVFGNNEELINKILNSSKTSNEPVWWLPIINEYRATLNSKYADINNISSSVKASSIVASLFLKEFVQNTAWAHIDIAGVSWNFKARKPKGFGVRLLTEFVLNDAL

Sequence of Potassium voltage-gated channel subfamily KQT member 2 (O88943 whole entry): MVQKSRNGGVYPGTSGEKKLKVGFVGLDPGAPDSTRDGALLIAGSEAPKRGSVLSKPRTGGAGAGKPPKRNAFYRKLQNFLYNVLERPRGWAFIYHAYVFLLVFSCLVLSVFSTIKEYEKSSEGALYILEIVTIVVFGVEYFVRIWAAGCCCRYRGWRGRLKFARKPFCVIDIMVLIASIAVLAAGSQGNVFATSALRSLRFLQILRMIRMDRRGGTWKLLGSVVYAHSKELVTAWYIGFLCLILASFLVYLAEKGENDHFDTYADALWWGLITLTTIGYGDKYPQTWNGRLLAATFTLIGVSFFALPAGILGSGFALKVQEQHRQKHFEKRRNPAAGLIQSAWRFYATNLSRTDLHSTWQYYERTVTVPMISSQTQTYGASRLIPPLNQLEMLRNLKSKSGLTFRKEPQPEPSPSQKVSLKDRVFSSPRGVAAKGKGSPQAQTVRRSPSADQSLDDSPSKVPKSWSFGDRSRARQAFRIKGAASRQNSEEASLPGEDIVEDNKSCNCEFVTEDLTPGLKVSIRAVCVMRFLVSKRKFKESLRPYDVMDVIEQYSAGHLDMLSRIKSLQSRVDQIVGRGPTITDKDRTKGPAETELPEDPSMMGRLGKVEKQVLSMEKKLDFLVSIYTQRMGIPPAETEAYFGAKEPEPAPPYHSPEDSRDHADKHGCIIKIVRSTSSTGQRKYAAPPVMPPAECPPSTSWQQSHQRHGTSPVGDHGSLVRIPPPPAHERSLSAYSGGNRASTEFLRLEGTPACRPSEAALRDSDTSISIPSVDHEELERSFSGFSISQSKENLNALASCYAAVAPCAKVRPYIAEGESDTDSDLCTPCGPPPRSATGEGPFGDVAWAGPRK

## COC(=O)C(Cc1ccccc1)NCC(=O)Nc1cccc(Cl)c1C (stereo not drawn)
[1]
  IC50: 1.57 µM (active)

## O=C(c1ccccc1F)N1C(=O)c2cccc3cccc1c23
Escherichia coli [2]
  AC50: 38.6 µM (active)

## O=C(NC(=O)N1CCN(c2cccc(Cl)c2)CC1)c1ccc(Cl)cc1
[3]
  AC50: 0.263 µM (active)
[4]
  IC50: 3.05 µM (active)

## Cc1cccc(OCC(=O)N2CCOCC2)c1
Escherichia coli [2]
  AC50: 37.1 µM (active)
Escherichia coli [5]
  AC50: 103 µM (active)

## NS(=O)(=O)c1ccc(CNc2ccc3ccccc3n2)cc1
[6]
  EC50: > 50 µM (active)
[7]
  IC50: 3.76 µM (active)
[8]
  IC50: 3.57 µM (active)

## COc1ccc(-n2c(C)cc(C(=O)COC(=O)c3ccc(O)cc3O)c2C)cc1
[4]
  IC50: 5.7 µM (active)

## CCc1nnc(NC(=O)CCc2nc(C3=CCN(C)CC3)no2)s1
[9]
  IC50: 3.81 µM (active)

## CSc1ccccc1OCc1cc(C(=O)N2CCNC(=O)C2)no1
[9]
  IC50: 6.88 µM (active)

## Cc1cc(C)cc(NC(=O)/C=C/c2ccc([N+](=O)[O-])s2)c1
HEK293 [10]
  EC50: > 20 µM (inactive)
HEK293 [11]
  IC50: 9.79 µM (active)
HEK293 [12]
  IC50: > 20 µM (inactive)
HEK293 [13]
  IC50: > 20 µM (inactive)
[14]
  EC50: 3.75 µM (active)
[15]
  EC50: 6.03 µM (active)
HEK293 [16]
  EC50: > 59.7 µM (inactive)
HEK293 [17]
  EC50: > 59.7 µM (inactive)

## CC(CC(=O)Nc1ncc([N+](=O)[O-])s1)c1ccccc1 (stereo not drawn)
[18]
  EC50: > 150 µM (inactive)
[19]
  EC50: 0.76 µM (active)
[20]
  EC50: > 180 µM (inactive)
[21]
  EC50: > 160 µM (inactive)

## COc1ccc2cc(C(c3nnnn3CCc3ccccc3)N3CCCC(C)C3)c(=O)[nH]c2c1 (stereo not drawn)
[1]
  IC50: 2.7 µM (active)

## Cc1ccc(CNC(=O)c2ccccc2NS(=O)(=O)c2ccc(Cl)nc2)cc1
[7]
  IC50: 7.31 µM (active)
[8]
  IC50: 4.22 µM (active)

## C[C@@H]1CCCCO[C@@H](CN(C)C(=O)Nc2ccc3c(c2)OCO3)[C@@H](C)CN([C@@H](C)CO)C(=O)c2cc(N(C)C)ccc2O1
[22]
  AC50: 114 µM (active)

## O=C(c1ccco1)N1CCN(c2cc(-c3ccccc3)nc3cc(-c4ccc(Cl)cc4)nn23)CC1
[23]
  EC50: 0.99 µM (active)
[24]
  EC50: 2.6 µM (active)

## O=C(c1ccc(Cl)cc1)N1CCN(c2cc(-c3ccccc3)nc3cc(-c4cccc(Cl)c4)nn23)CC1
[23]
  EC50: 1.99 µM (active)
[24]
  EC50: 1.74 µM (active)

## Cc1cc(-c2c(C)[nH]n(-c3ccc(Cl)cc3)c2=O)n(-c2ccc(Cl)cc2)n1
[25]
  EC50: 17.8 µM (active)
Streptokinase A
  EC50: > 150 µM (not active)
Streptococcus
  EC50: 62.8 µM (active)
Escherichia coli [2]
  AC50: 46.2 µM (active)

## Cc1ccc(C(=O)O/N=C/c2c(N3CCOCC3)n(C)c3ccccc23)cc1
[18]
  EC50: > 160 µM (inconclusive)
[26]
  EC50: > 120 µM (not active)
[27]
  EC50: 10.9 µM (active)
[28]
  EC50: > 120 µM (not active)
[19]
  EC50: 0.419 µM (active)
[29]
  EC50: 0.799 µM (active)
[20]
  EC50: > 180 µM (inactive)
[30]
  EC50: 3.44 µM (active)
INS1
  AC50: 0.915 µM (active)
[21]
  EC50: > 160 µM (inactive)

## O=C(O)COc1ccccc1/C=N/NC(=O)c1cccc(S(=O)(=O)Nc2cccc(Cl)c2)c1
Leucine aminopeptidase
  IC50: 21.3 µM (active)
[22]
  AC50: 73.8 µM (active)
